As a reminder, the IC50 is the concentration that gives 50% inhibition.

This passage reports IC50 and CDK5/CDK2 specificity results from patent publication US20220389009A1, “SUBSTITUTED 1,6-NAPHTHYRIDINE INHIBITORS OF CDK5” (Goldfinch Bio, Inc., priority 2019, published 2022).

One test has as its target CDK2/CycA2 (Homo sapiens, UniProt P24941). Nature of the test: CDK2 mobility shift assay (enzymatic activity of CDK2/CycA2). In kind it is biochemical. The settings on record: 1.25 nM CDK2/CycA2, 37 μM ATP, FL Peptide 18, 120 min at room temperature; read-out: CDK2 IC50. The method in brief:
(§1)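 Phosphorylation of 1.5 μM fluorescent peptide was read by microfluidic mobility shift and fitted to IC50 (4-parameter), normalized to no-compound and no-enzyme controls. CDK5/p25 ran at 0.154 nM with […] ATP for 60 min, using peptide 29. CDK2/CycA2 ran at 1.25 nM with 37 μM ATP for 120 min, using peptide 18. Both included a 30-min compound preincubation in pH 7.5 buffer.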

Another test has as its target CDK5/p25 (Homo sapiens, UniProt Q00535). Nature of the test: CDK5 mobility shift assay (enzymatic activity of CDK5/p25). In kind it is biochemical. The settings on record: for IC50: 0.154 nM CDK5/p25, FL peptide 29, 60 min at room temperature, read-out: CDK5 IC50; for CDK5/CDK2 specificity: fold more active against CDK5 than CDK2. The method in brief:
as §1

Some results are limits rather than exact numbers.

Chain of CDK5/p25 (Q00535 whole entry): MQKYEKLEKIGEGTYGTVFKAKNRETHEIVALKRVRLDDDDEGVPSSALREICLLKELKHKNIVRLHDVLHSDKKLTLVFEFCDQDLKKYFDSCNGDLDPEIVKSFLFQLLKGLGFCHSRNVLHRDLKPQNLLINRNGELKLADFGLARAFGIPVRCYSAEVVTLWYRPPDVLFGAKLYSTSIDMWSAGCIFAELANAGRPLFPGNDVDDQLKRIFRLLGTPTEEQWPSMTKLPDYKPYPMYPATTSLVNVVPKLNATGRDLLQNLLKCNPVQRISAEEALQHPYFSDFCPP
Chain of CDK5/p25 (Q15078 99-307 partner limits assumed): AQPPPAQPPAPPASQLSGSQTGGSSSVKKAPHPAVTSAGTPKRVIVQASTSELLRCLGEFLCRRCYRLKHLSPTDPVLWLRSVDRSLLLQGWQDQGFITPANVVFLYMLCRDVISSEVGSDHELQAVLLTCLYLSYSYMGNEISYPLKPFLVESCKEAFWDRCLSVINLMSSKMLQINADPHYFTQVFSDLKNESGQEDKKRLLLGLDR

Turning to `CS(=O)(=O)N(c1ccc2cnc(Nc3ccc(-n4cccn4)cc3F)cc2n1)C1CCNCC1` [Compound 106, N-(7-[[2-fluoro-4-(pyrazol-1-yl)phenyl]amino]-1,6-naphthyridin-2-yl)-N-(piperidin-4-yl)methanesulfonamide], the IC50 at CDK2/CycA2 and at CDK5/p25 was more than 1000 nM each time. The CDK5/CDK2 specificity entry on CDK5/p25 was “+ (10-fold or less more active against CDK5 than CDK2)”.
Consider `CN1CCC([C@@](C)(O)c2ccc3cnc(Nc4ccc(-n5cc(C(=O)O)cn5)cc4F)cc3n2)CC1` [Compound 362, 1-[3-fluoro-4-([2-[(1R)-1-hydroxy-1-(1-methylpiperidin-4-yl)ethyl]-1,6-naphthyridin-7-yl]amino)phenyl]pyrazole-4-carboxylic acid], for which the half-inhibitory concentration (IC50) at CDK2/CycA2 was in the range of 10 to 100 nM. For the same compound, at CDK5/p25, the concentration for half-maximal inhibition (IC50) is less than 10 nM; the CDK5/CDK2 specificity entry is “++ (greater than 10-fold and less than or equal to 100-fold more active against CDK5 than CDK2)”.
Regarding `CN(C)Cc1cccc(Nc2cc3nc(S(=O)(=O)C4CCN(C)CC4)ccc3cn2)c1` [Compound 280], the 50% inhibitory concentration (IC50) at CDK2/CycA2 was in the range of 100 to 1000 nM. Further, at CDK5/p25, the IC50 lay within 10 to 100 nM and the CDK5/CDK2 specificity entry is “+ (10-fold or less more active against CDK5 than CDK2)”.
Consider `CN1CCC(C(C)(O)c2ccc3cnc(Nc4ccc(-n5cccn5)cc4F)cc3n2)CC1` (single isomer, unassigned) [Compound 216, 1-(7-[[2-fluoro-4-(pyrazol-1-yl)phenyl]amino]-1,6-naphthyridin-2-yl)-1-(1-methylpiperidin-4-yl)ethanol], for which the IC50 on CDK2/CycA2 lay within 10 to 100 nM. For the same compound, on CDK5/p25, the IC50 was less than 10 nM; the CDK5/CDK2 specificity result is “++ (greater than 10-fold and less than or equal to 100-fold more active against CDK5 than CDK2)”.
Take `CN1CCC(C(C)(O)c2ccc3cnc(Nc4ccc(-c5ccc(C#N)cc5)cc4F)cc3n2)CC1` (stereo not drawn) [Compound 358]: the half-inhibitory concentration (IC50) on CDK2/CycA2 was 10 to 100 nM; at CDK5/p25 it was less than 10 nM. In addition, the CDK5/CDK2 specificity entry on CDK5/p25 was “++ (greater than 10-fold and less than or equal to 100-fold more active against CDK5 than CDK2)”.
On to `CCC(c1ccc2cnc(Nc3ccc(-n4ccc(CO)n4)cc3F)cc2n1)C1CCN(C)CC1` (stereo not drawn) [Compound 246], for which, on CDK2/CycA2, the half-inhibitory concentration (IC50) is more than 1000 nM. At CDK5/p25, the IC50 was 100 to 1000 nM; the CDK5/CDK2 specificity result is “++ (greater than 10-fold and less than or equal to 100-fold more active against CDK5 than CDK2)”.
As to `CN1CCC(Sc2ccc3cnc(Nc4ccc(-n5ccc(CO)n5)cc4F)cc3n2)CC1` [Compound 127, [1-[3-fluoro-4-([2-[(1-methylpiperidin-4-yl)sulfanyl]-1,6-naphthyridin-7-yl]amino)phenyl]pyrazol-3-yl]methanol], the IC50 at CDK2/CycA2 was in the range of 10 to 100 nM. Besides, on CDK5/p25, the IC50 was less than 10 nM and the CDK5/CDK2 specificity entry was “+++ (greater than 100-fold more active against CDK5 than CDK2)”.
With `CN1CCC(S(=O)(=O)c2ccc3cnc(Nc4ccccc4F)cc3n2)CC1` [Compound 299], the IC50 at CDK2/CycA2 was in the range of 100 to 1000 nM. At CDK5/p25, the IC50 is less than 10 nM; the CDK5/CDK2 specificity entry is “++ (greater than 10-fold and less than or equal to 100-fold more active against CDK5 than CDK2)”.
For `C=C(c1ccc2cnc(Nc3ccc(-n4ccc(CO)n4)cc3F)cc2n1)C1CCNCC1` [Compound 139, [1-[3-fluoro-4-([2-[1-(piperidin-4-yl)ethenyl]-1,6-naphthyridin-7-yl]amino)phenyl]pyrazol-3-yl]methanol], at CDK2/CycA2, the IC50 lay in the range of 100 to 1000 nM. Also, at CDK5/p25, the IC50 was less than 10 nM and the CDK5/CDK2 specificity entry is listed as “+++ (greater than 100-fold more active against CDK5 than CDK2)”.
With `CN1CCC(S(=O)(=O)c2ccc3cnc(Nc4ccon4)cc3n2)CC1` [Compound 269], on CDK2/CycA2, the IC50 lay within 100 to 1000 nM. Also, on CDK5/p25, the IC50 lay in the range of 10 to 100 nM and the CDK5/CDK2 specificity result is on record as “+ (10-fold or less more active against CDK5 than CDK2)”.
With `CC(O)(c1ccc2cnc(Nc3ccc(-n4cccn4)cc3F)cc2n1)C1CCNCC1` (stereo not drawn) [Compound 196, 1-(7-[[2-fluoro-4-(pyrazol-1-yl)phenyl]amino]-1,6-naphthyridin-2-yl)-1-(piperidin-4-yl)ethanol], at CDK2/CycA2, the IC50 was in the range of 100 to 1000 nM. Also, on CDK5/p25, the IC50 is less than 10 nM; the CDK5/CDK2 specificity result is “++ (greater than 10-fold and less than or equal to 100-fold more active against CDK5 than CDK2)”.
In the case of `Cc1ccc(Nc2cc3nc(S(=O)(=O)C4CCN(C)CC4)ccc3cn2)c(F)c1` [Compound 294], the IC50 on CDK2/CycA2 lay in the range of 100 to 1000 nM. Also, at CDK5/p25, the IC50 was less than 10 nM and the CDK5/CDK2 specificity result was “+++ (greater than 100-fold more active against CDK5 than CDK2)”.
For `CC(C)c1ccc(Nc2cc3nc(S(=O)(=O)C4CCN(C)CC4)ccc3cn2)cc1` [Compound 298], on CDK2/CycA2, the concentration for half-maximal inhibition (IC50) was 10 to 100 nM. For the same compound, at CDK5/p25, the IC50 was less than 10 nM and the CDK5/CDK2 specificity entry is “+++ (greater than 100-fold more active against CDK5 than CDK2)”.
Regarding `O=S(=O)(c1ccc2cnc(Nc3ccc(-n4ccc(CO)n4)cc3F)cc2n1)C1CCNCC1` [Compound 123, [1-(3-fluoro-4-[[2-(piperidine-4-sulfonyl)-1,6-naphthyridin-7-yl]amino]phenyl)pyrazol-3-yl]methanol], at CDK2/CycA2, the IC50 lay in the range of 100 to 1000 nM. At CDK5/p25, the IC50 was 10 to 100 nM; the CDK5/CDK2 specificity result was “++ (greater than 10-fold and less than or equal to 100-fold more active against CDK5 than CDK2)”.
Take `O=S(=O)(c1ccc2cnc(Nc3ccc(-n4cccn4)cc3F)cc2n1)C1CCN(CC2COC2)CC1` [Compound 332]: the IC50 at CDK2/CycA2 was in the range of 100 to 1000 nM. For the same compound, at CDK5/p25, the half-inhibitory concentration (IC50) is less than 10 nM and the CDK5/CDK2 specificity result was “+++ (greater than 100-fold more active against CDK5 than CDK2)”.
`COC(=O)c1ccn(-c2ccc(Nc3cc4nc(S(=O)(=O)C5CCN(C)CC5)ccc4cn3)c(F)c2)n1` [Compound 290]: the concentration for half-maximal inhibition (IC50) at CDK2/CycA2 lay within 100 to 1000 nM. Further, at CDK5/p25, the concentration for half-maximal inhibition (IC50) is less than 10 nM and the CDK5/CDK2 specificity result was “+++ (greater than 100-fold more active against CDK5 than CDK2)”.
For `Fc1cc(-n2cccn2)ccc1Nc1cc2nc(CC3CCNCC3)ccc2cn1` [Compound 124, N-[2-fluoro-4-(pyrazol-1-yl)phenyl]-2-(piperidin-4-ylmethyl)-1,6-naphthyridin-7-amine], on CDK2/CycA2, the IC50 lay within 100 to 1000 nM. Moreover, at CDK5/p25, the concentration for half-maximal inhibition (IC50) lay in the range of 10 to 100 nM; the CDK5/CDK2 specificity result was “++ (greater than 10-fold and less than or equal to 100-fold more active against CDK5 than CDK2)”.
In the case of `O=C(O)[C@@H]1CNCC[C@@H]1Nc1ccc2cnc(Nc3ccc(-n4ccc(CO)n4)cc3F)cc2n1` (relative stereo) [Compound 131, cis-4-[[7-([2-fluoro-4-[3-(hydroxymethyl)pyrazol-1-yl]phenyl]amino)-1,6-naphthyridin-2-yl]amino]piperidine-3-carboxylic acid], the IC50 on CDK2/CycA2 is more than 1000 nM. In addition, at CDK5/p25, the IC50 lay in the range of 100 to 1000 nM; the CDK5/CDK2 specificity entry was “++ (greater than 10-fold and less than or equal to 100-fold more active against CDK5 than CDK2)”.
Consider `CN1CCC(S(=O)(=O)c2ccc3cnc(Nc4ccc(N5CCN(C)CC5)cc4)cc3n2)CC1` [Compound 270], for which the IC50 at CDK2/CycA2 is 100 to 1000 nM. Moreover, on CDK5/p25, the half-inhibitory concentration (IC50) is less than 10 nM; the CDK5/CDK2 specificity result is “++ (greater than 10-fold and less than or equal to 100-fold more active against CDK5 than CDK2)”.
As to `CCC(O)(c1ccc2cnc(Nc3ccc(-n4cccn4)cc3F)cc2n1)C1CCN(C)CC1` (stereo not drawn) [Compound 392], the values for the concentration for half-maximal inhibition (IC50) at CDK2/CycA2 and at CDK5/p25 were 100 to 1000 nM and 10 to 100 nM, respectively. For the same compound, at CDK5/p25, the CDK5/CDK2 specificity entry was “++ (greater than 10-fold and less than or equal to 100-fold more active against CDK5 than CDK2)”.
Regarding `CN1CCC(C(C)(O)c2ccc3cnc(Nc4ccc(-c5ccc(C#N)cn5)cc4F)cc3n2)CC1` (stereo not drawn) [Compound 356], at CDK2/CycA2, the IC50 was in the range of 10 to 100 nM. On CDK5/p25, the half-inhibitory concentration (IC50) was less than 10 nM; the CDK5/CDK2 specificity entry is “++ (greater than 10-fold and less than or equal to 100-fold more active against CDK5 than CDK2)”.
For the compound `CN1CCN(S(=O)(=O)c2ccc3cnc(Nc4ccc(-n5ccc(CO)n5)cc4F)cc3n2)CC1` [Compound 245, [1-(3-fluoro-4-[[2-(4-methylpiperazin-1-ylsulfonyl)-1,6-naphthyridin-7-yl]amino]phenyl)pyrazol-3-yl]methanol], the concentration for half-maximal inhibition (IC50) on CDK2/CycA2 and on CDK5/p25 was 100 to 1000 nM in each case. Moreover, the CDK5/CDK2 specificity entry at CDK5/p25 is reported as “+ (10-fold or less more active against CDK5 than CDK2)”.
With `CN1CCC(S(=O)(=O)c2ccc3cnc(Nc4ccc(N5CCNC(=O)C5)cc4)cc3n2)CC1` [Compound 305], on CDK2/CycA2, the IC50 is 10 to 100 nM. Also, on CDK5/p25, the IC50 is less than 10 nM; the CDK5/CDK2 specificity result was “++ (greater than 10-fold and less than or equal to 100-fold more active against CDK5 than CDK2)”.
Turning to `Cc1ccccc1Nc1cc2nc(S(=O)(=O)C3CCN(C)CC3)ccc2cn1` [Compound 297], the IC50 on CDK2/CycA2 is 100 to 1000 nM; at CDK5/p25, less than 10 nM. Besides, the CDK5/CDK2 specificity result at CDK5/p25 is recorded as “+++ (greater than 100-fold more active against CDK5 than CDK2)”.
The matching figures for `CN1CCC(S(=O)(=O)c2ccc3cnc(Nc4ccc(-n5ccc(C(=O)O)n5)cc4F)cc3n2)CC1` [Compound 198, 1-(3-fluoro-4-((2-((1-methylpiperidin-4-yl)sulfonyl)-1,6-naphthyridin-7-yl)amino)phenyl)-1H-pyrazole-3-carboxylic acid]: 100 to 1000 nM, less than 10 nM and “+++ (greater than 100-fold more active against CDK5 than CDK2)”.
As to `NC(=O)c1cccc(Nc2cc3nc(SC4CCNCC4)ccc3cn2)c1` [Compound 134, 3-[[2-(piperidin-4-ylsulfanyl)-1,6-naphthyridin-7-yl]amino]benzamide], the IC50 is 10 to 100 nM at CDK2/CycA2 and less than 10 nM on CDK5/p25. Moreover, the CDK5/CDK2 specificity result on CDK5/p25 was “++ (greater than 10-fold and less than or equal to 100-fold more active against CDK5 than CDK2)”.
